The source of these data is paper PMC11374673, “Discovery of isoquinoline sulfonamides as allosteric gyrase inhibitors with activity against fluoroquinolone-resistant bacteria” (Nature Chemistry, 2024).

Values after ≈ are worked out from the molar mass of the structure shown. Read-outs that look alike come from different tables or passages of the source. Where only a bound is given, the exact number is not on record here.

For one assay, the system named is E. coli W3110. Description: MIC by broth microdilution. In kind it is cell-based, Escherichia coli. To be noted: broth microdilution, read-out: MIC E. coli W3110. As to the method: (§1) MIC was determined by broth microdilution. Single-colony cultures were grown to exponential phase (OD600 of 0.5) aerobically at 37 °C. In case of strains from the Keio collection, 50 µg ml^−1 kanamycin was supplemented to the media to ascertain a homogeneous population. The bacterial suspensions were diluted 100-fold in CAMHB and 50 µl was added to a twofold serial dilution series of test compounds (50 µl per well) in polypropylene 96-well microtitre plates to reach a volume of 100 µl. The plates were sealed with breathable membranes and incubated overnight at 37 °C with constant shaking (600 r.p.m.).

A further assay deals with K. pneumoniae ATCC 29665. Description: MIC by broth microdilution. It is filed as cell-based, Klebsiella pneumoniae. To be noted: read-out: MIC K. pneumoniae ATCC 29665. As to the method: as §1
The mark [1] stands for this setting: Klebsiella pneumoniae, ATCC29665, broth microdilution.

On to `O=S(=O)(NCCNCc1ccc(-c2ccccc2Cl)cc1)c1cccc2cnccc12` [Compound 70], for which the MIC with E. coli W3110 (Escherichia coli, W3110, WT) was determined as 25 µM (≈ 11.3 µg/mL); in the assay on K. pneumoniae ATCC 29665 (setting [1]) it was 50 µM (≈ 22.6 µg/mL).
In the case of `Cc1ccccc1-c1ccc(CNCCNS(=O)(=O)c2cccc3cnccc23)cc1` [Compound 71], the MIC with E. coli W3110 (Escherichia coli, W3110, WT) was determined as 12.5 µM (≈ 5.39 µg/mL); with K. pneumoniae ATCC 29665 (setting [1]) it was 50 µM (≈ 21.6 µg/mL).
As for `N#Cc1ccccc1-c1ccc(CNCCNS(=O)(=O)c2cccc3cnccc23)cc1` [Compound 72], the MIC came out at 25 µM (≈ 11.1 µg/mL) in the assay on E. coli W3110 (Escherichia coli, W3110, WT) and 50 µM (≈ 22.1 µg/mL) in the assay on K. pneumoniae ATCC 29665 (setting [1]).
In the case of `COc1ccccc1-c1ccc(CNCCNS(=O)(=O)c2cccc3cnccc23)cc1` [Compound 73], the MIC turned out to be 25 µM (≈ 11.2 µg/mL) in the assay with E. coli W3110 (Escherichia coli, W3110, WT) and 50 µM (≈ 22.4 µg/mL) with K. pneumoniae ATCC 29665 (setting [1]).
For `O=S(=O)(NCCNCc1ccc(-c2ccc(Cl)c(Cl)c2)cc1)c1cccc2cnccc12` [Compound 74], the MIC in the assay with E. coli W3110 (Escherichia coli, W3110, WT) is 25 µM (≈ 12.2 µg/mL); in the assay on K. pneumoniae ATCC 29665 (setting [1]) it was over 50 µM; in the assay with K. pneumoniae ATCC 29665 (broth microdilution), over 50 µM.
With `O=S(=O)(NCCNCc1ccc(-c2cc(Cl)cc(Cl)c2)cc1)c1cccc2cnccc12` [Compound 75], the MIC in the assay on E. coli W3110 (Escherichia coli, W3110, WT) is over 50 µM; in the assay with E. coli W3110 (WT), over 50 µM; with K. pneumoniae ATCC 29665 (setting [1]) it was over 50 µM; with K. pneumoniae ATCC 29665 (broth microdilution), over 50 µM.
Turning to `O=S(=O)(NCCNCc1ccc(-c2ccc3ccccc3c2)cc1)c1cccc2cnccc12` [Compound 76], the MIC is over 50 µM in the assay on E. coli W3110 (Escherichia coli, W3110, WT); over 50 µM with E. coli W3110 (WT); over 50 µM in the assay with K. pneumoniae ATCC 29665 (setting [1]); over 50 µM in the assay on K. pneumoniae ATCC 29665 (broth microdilution).
As for `O=S(=O)(NCCNCc1ccc(-c2ccc3c(c2)OCO3)cc1)c1cccc2cnccc12` [Compound 77], the minimal inhibitory concentration (MIC) in the assay on E. coli W3110 (Escherichia coli, W3110, WT) is over 50 µM; in the assay on E. coli W3110 (WT) it was over 50 µM; in the assay on K. pneumoniae ATCC 29665 (setting [1]), over 50 µM; in the assay on K. pneumoniae ATCC 29665 (broth microdilution), over 50 µM.
As for `O=S(=O)(NCCNCc1ccc(-c2ccc3c(c2)OCCO3)cc1)c1cccc2cnccc12` [Compound 78], the MIC was over 50 µM in the assay on E. coli W3110 (Escherichia coli, W3110, WT); over 50 µM in the assay with E. coli W3110 (WT); over 50 µM in the assay on K. pneumoniae ATCC 29665 (setting [1]); over 50 µM in the assay with K. pneumoniae ATCC 29665 (broth microdilution).
Consider `O=S(=O)(NCCNCc1ccc(-c2cccnc2)nc1)c1cccc2cnccc12` [Compound 79], for which the minimum inhibitory concentration (MIC) in the assay on E. coli W3110 (Escherichia coli, W3110, WT) is over 50 µM; with E. coli W3110 (WT), over 50 µM; with K. pneumoniae ATCC 29665 (setting [1]), over 50 µM; in the assay on K. pneumoniae ATCC 29665 (broth microdilution) it was over 50 µM.
`O=S(=O)(NCCNCc1ccc(-c2ccccc2)nc1)c1cccc2cnccc12` [Compound 80]: the minimal inhibitory concentration (MIC) with E. coli W3110 (Escherichia coli, W3110, WT) is over 50 µM; with E. coli W3110 (WT) it was over 50 µM; with K. pneumoniae ATCC 29665 (setting [1]), over 50 µM; with K. pneumoniae ATCC 29665 (broth microdilution), over 50 µM.
In the case of `O=S(=O)(NCCNCc1ccc(-c2ccc(F)nc2)nc1)c1cccc2cnccc12` [Compound 81], the minimum inhibitory concentration (MIC) in the assay with E. coli W3110 (Escherichia coli, W3110, WT) is over 50 µM; in the assay with E. coli W3110 (WT), over 50 µM; in the assay with K. pneumoniae ATCC 29665 (setting [1]) it was over 50 µM; with K. pneumoniae ATCC 29665 (broth microdilution), over 50 µM.
Regarding `O=S(=O)(NCCNCc1ccc(-c2ccc(F)cc2)nc1)c1cccc2cnccc12` [Compound 82], the MIC with E. coli W3110 (Escherichia coli, W3110, WT) was over 50 µM; with E. coli W3110 (WT), over 50 µM; in the assay on K. pneumoniae ATCC 29665 (setting [1]), over 50 µM; in the assay on K. pneumoniae ATCC 29665 (broth microdilution), over 50 µM.
On to `O=S(=O)(NCCNCc1ccc(-c2cccnc2)c(Cl)c1)c1cccc2cnccc12` [Compound 83], for which the MIC was over 50 µM in the assay with E. coli W3110 (Escherichia coli, W3110, WT); over 50 µM in the assay on E. coli W3110 (WT); over 50 µM in the assay with K. pneumoniae ATCC 29665 (setting [1]); over 50 µM with K. pneumoniae ATCC 29665 (broth microdilution).
On to `O=S(=O)(NCCNCc1ccc(-c2ccccc2)c(Cl)c1)c1cccc2cnccc12` [Compound 84], for which the MIC with E. coli W3110 (Escherichia coli, W3110, WT) was over 50 µM; in the assay on E. coli W3110 (WT), over 50 µM; in the assay on K. pneumoniae ATCC 29665 (setting [1]) it was over 50 µM; in the assay with K. pneumoniae ATCC 29665 (broth microdilution), over 50 µM.
Consider `O=S(=O)(NCCNCc1ccc(-c2ccc(F)nc2)c(Cl)c1)c1cccc2cnccc12` [Compound 85], for which the MIC in the assay on E. coli W3110 (Escherichia coli, W3110, WT) was over 50 µM; in the assay on E. coli W3110 (WT), over 50 µM; with K. pneumoniae ATCC 29665 (setting [1]), over 50 µM; with K. pneumoniae ATCC 29665 (broth microdilution), over 50 µM.
On to `O=S(=O)(NCCNCc1ccc(-c2ccc(F)cc2)c(Cl)c1)c1cccc2cnccc12` [Compound 86], for which the MIC is 50 µM (≈ 23.5 µg/mL) in the assay on E. coli W3110 (Escherichia coli, W3110, WT); over 50 µM in the assay with K. pneumoniae ATCC 29665 (setting [1]); over 50 µM with K. pneumoniae ATCC 29665 (broth microdilution).

Broadly, the MIC is the lowest concentration that inhibits growth of the organism.
